“Also recorded” adds a separate entry of the source.
What was measured:
EGFR [1] = target: T1, EGFR (Homo sapiens, UniProt P00533, DEL746-750); test: western blot of EGFR phosphorylation in PC9 cells; format: cell-based; conditions: for EGFR phosphorylation inhibition (western blot): PC9 cells, 2 μM, 24 h (FIG. 3A)
T1 construct: endogenous in cells; host or cells: PC9 cells
Method: 40 μg/per lane of cell lysates were analyzed by western blot. The antibodies of actin, EGFR, and p-EGFR were from Cell Signaling (Danvers, Mass.). In FIGS. 1A-1B, actin lines are used to show an internal standard for the loading control in this western blot.

[2] = tested on: SK-Hep-1 cell lines (a hepatocellular carcinoma (HCC) cell); test: MTT assay, growth inhibition of SK-Hep-1 cells; format: cell-based; conditions: SK-Hep-1 cells, 48 hours
Method: MTT assay was used to measure growth inhibition. […] MTT (3-(4,5-dimethylthiazol-2-yl)-2,5-diphenyl tetrazolium bromide) assay was performed as follow.
(§1) The effect of individual test compounds on cell viability was assessed by using the MTT in 6 replicates. Sk-Hep-1 cells were seeded and incubated in 96-well, flat-bottomed plates for 24 hours, and were exposed to various concentrations of test compounds dissolved in DMSO (final concentration, 0.1%) for 48 hours. Controls received DMSO vehicle at a concentration equal to that in drug-treated cells. The medium was removed, replaced by 200 μL of 0.5 mg/mL MTT in 10% fetal bovine serum containing DMEM (Dulbecco's Modified Eagle Medium), and cells were incubated in the carbon dioxide incubator at 37° C. for 2 hours. Supernatants were removed from the wells and the reduced MTT dye was solubilized in 100 μL/well DMSO. Absorbance at 570 nm was determined on a plate reader.
The SK-Hep1 cells were then analyzed with western blot assay and MTT assay.

PLC5 xenograft tumor = PLC5 xenograft tumor growth in nude mice; conditions: erlotinib 50 mg/kg/day; for effect on PLC5 tumor growth, in words: p.o. daily for 3 weeks, compounds 20 mg/kg/day (FIG. 6A-6B); for tumor inhibition, PLC5 cell: p.o. daily, after 21 days of treatment, compounds 8 and 19 20 mg/kg/day
Method: (§5) The mice were housed in groups and maintained under standard laboratory conditions on a 12-hour light-dark cycle. They were given access to sterilized food and water ad libitum. All experimental procedures using these mice were performed in accordance with protocols approved by the Institutional Laboratory Animal Care and Use Committee of National Taiwan University. Each mouse was inoculated s.c. in the dorsal flank with 1×10^6 HCC cells suspended in 0.1 ml of serum-free medium containing 50% Matrigel (BD Biosciences, Bedford, Mass.). […] Controls received vehicle.
(§6) Tumor growth data points are reported as mean tumor volume±SE.

Huh-7 xenograft tumor = Huh-7 xenograft tumor growth in nude mice; conditions: erlotinib 50 mg/kg/day; for effect on Huh-7 tumor growth, in words: p.o. daily for 3 weeks, compounds 20 mg/kg/day (FIG. 7A-7B); for tumor inhibition, Huh7 cell: p.o. daily, after 21 days of treatment, compounds 8 and 19 20 mg/kg/day
Method: as §5, §6

EGFR [3] = target: EGFR (Homo sapiens, UniProt P00533); test: western blot of EGFR phosphorylation in H358 cells; conditions: 1 and 5 μM, 24 hours (FIG. 1C)
EGFR (Homo sapiens, UniProt P00533), sequence (P00533 25-1210): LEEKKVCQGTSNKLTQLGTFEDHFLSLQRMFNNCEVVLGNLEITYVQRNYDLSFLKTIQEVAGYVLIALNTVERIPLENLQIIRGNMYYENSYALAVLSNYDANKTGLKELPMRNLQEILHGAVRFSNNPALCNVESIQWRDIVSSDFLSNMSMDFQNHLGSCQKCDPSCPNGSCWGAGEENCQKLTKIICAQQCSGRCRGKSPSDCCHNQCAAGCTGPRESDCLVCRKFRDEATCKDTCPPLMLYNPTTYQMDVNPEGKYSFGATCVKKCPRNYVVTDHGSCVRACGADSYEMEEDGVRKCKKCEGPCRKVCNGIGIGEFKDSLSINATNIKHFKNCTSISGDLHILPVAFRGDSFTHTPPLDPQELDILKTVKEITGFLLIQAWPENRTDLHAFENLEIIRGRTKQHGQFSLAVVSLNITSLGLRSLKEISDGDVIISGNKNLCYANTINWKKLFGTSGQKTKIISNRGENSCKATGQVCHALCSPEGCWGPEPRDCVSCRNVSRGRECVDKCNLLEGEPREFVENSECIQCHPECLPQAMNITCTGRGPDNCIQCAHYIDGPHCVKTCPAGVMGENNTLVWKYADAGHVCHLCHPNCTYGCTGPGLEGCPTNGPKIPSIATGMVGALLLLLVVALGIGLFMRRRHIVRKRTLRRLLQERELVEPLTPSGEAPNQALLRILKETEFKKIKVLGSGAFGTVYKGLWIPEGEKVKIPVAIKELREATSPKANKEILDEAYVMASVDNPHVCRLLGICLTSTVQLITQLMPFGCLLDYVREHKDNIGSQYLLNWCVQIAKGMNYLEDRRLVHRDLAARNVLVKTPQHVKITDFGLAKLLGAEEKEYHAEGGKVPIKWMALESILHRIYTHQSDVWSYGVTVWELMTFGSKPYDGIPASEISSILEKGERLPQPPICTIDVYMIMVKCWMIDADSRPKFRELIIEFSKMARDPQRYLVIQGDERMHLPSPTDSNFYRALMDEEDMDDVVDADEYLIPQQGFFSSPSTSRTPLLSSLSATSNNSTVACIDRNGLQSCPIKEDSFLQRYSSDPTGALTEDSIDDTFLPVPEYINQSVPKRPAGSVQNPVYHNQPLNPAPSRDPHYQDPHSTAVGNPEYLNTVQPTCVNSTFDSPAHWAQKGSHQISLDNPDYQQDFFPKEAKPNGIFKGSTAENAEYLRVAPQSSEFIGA

Hep3B cell lines = test: MTT assay, growth inhibition of Hep3B cells; format: cell-based; conditions: Homo sapiens
Method: as §1
Next, compounds 19, and 34-36 were screened against a panel of Hep3B cell lines for growth-inhibitory activities. […] Compounds 87-90, 95 and 96 were screened against a panel of PLC5 cell lines for growth-inhibitory activities.

CIP2A [4] = test: western blot of CIP2A expression in SK-Hep1 cells; format: cell-based; conditions: SK-Hep-1 cells; for inhibiting CIP2A expression: 5 μM, 30 hours (FIG. 4A)
Method: Accordingly, the pyrimidine and quinazoline derivatives above were screened by using western blot analysis for expression of CIP2A in SK-Hep1 cells. Before the western blot analysis, the SK-Hep-1 cells were maintained in DMEM supplemented with 10% FBS, 100 units/mL penicillin G, 100 μg/mL streptomycin sulfate and 25 μg/mL amphotericin B in a 37° C. humidified incubator in an atmosphere of 5% CO2 in air. In this western blot analysis, SK-Hep1 cells were respectively treated with compounds 1-24 at a concentration of 20 μM for 24 hours. In FIG. 2, the mono-substituted pyrimidine derivatives (compounds 1-5) have no appreciable change in CIP2A expression.
Cell viability, measured by MTT assay, and CIP2A expressions, analyzed by western blot, in response to compound 19 or erlotinib treatment in SK-Hep1 cell line were analyzed. SK-Hep-1 cells were treated with erlotinib and compound 19 at 2.5 and 5 μM for 24 h, respectively. The SK-Hep1 cells were then analyzed with western blot assay and MTT assay.
(§2) Next, compounds […], 19, and 22 were used to explore whether downregulation of CIP2A lead to suppression of p-Akt. FIG. 4A is the western blot analysis of the effect of the compounds 4, 19, and 22 on phosphorylation of Akt, PARP and Actin. In this western blot analysis, SK-Hep-1 cells were respectively treated with compounds 4, 19, and 22 at a concentration of 5 μM for 30 hours. […] That is, compound 19 and 22 can substantially increase apoptotic cell death to inhibit cancer growth.

CIP2A [5] = test: western blot of CIP2A expression in H358, H460 and H322 lung cancer cells; format: cell-based; conditions: 5 μM (FIG. 3C)
Method: (§3) Similarly, CIP2A expressions analyzed by western blot were also performed for lung cancer cells, H358, H460, and H322 cell lines. Moreover, drug-induced apoptotic cell death was also assessed by western blot analysis of activated caspases cleaved poly(ADP-ribose)polymerase (PARP). The cleavage of PARP is explained as follow. The compound induces apoptotic signal which cleave the procaspase 3 to the active caspase 3. The activation of caspase 3 further cleaves PARP and inactivate PAPR function. The events are thought to be required in late apoptosis. Therefore, the PARP cleavage is an indicator of apoptosis.
(§4) In the PARP row of FIG. 3C, the upper bands represented the uncleavage PARP, and the middle band and lower band represented cleavage PARP.

PARP [6] = test: western blot of PARP cleavage in H358, H460 and H322 lung cancer cells; format: cell-based; conditions: 5 μM (FIG. 3C)
Method: as §3, §4

p-Akt = test: western blot of p-Akt in SK-Hep-1 cells; format: cell-based; conditions: SK-Hep-1 cells, 5 μM, 30 hours (FIG. 4A)
Method: as §2
In other words, in the present of okadaic acid, the activation of PP2A by compound 19-incuced CIP2A inactivation is blocked.

PARP [7] = test: western blot of PARP cleavage in SK-Hep-1 cells; format: cell-based; conditions: 5 μM, 30 hours (FIG. 4A)
Method: as §2

SK-Hep-1 cells = test: apoptotic cell death by flow cytometry (sub-G1) and cell death detection ELISA; format: cell-based; conditions: 2.5 and 5 μM, 24 h (FIG. 4B-4C)
Method: FIG. 4B is flow cytometry analysis of cell death induced by compounds 4, 19, and 22 at 5 μM, after 24 h of treatment in SK-Hep-1 cells. The apoptotic cells were assessed by flow cytometry (sub-G1). After Sk-Hep-1 cells were treated with compounds 4, 19, and 22, Sk-Hep-1 cells were trypsinized, collected by centrifugation and resuspended in PBS. After centrifugation, the cells were washed in PBS and resuspended in […] (PI) staining solution. Specimens were incubated in the dark for 30 min at 37° C. and then analyzed with an EPICS Profile II flow cytometer (Coulter Corp., Hialeah, Fla.). All experiments were performed in triplicate
FIG. 4C is ELISA analysis of cell death to analyze effects of compounds 4, 19, and 22 on DNA fragmentation in SK-Hep-1 cells. The effect of compounds 4, 19 and 22 on cell viability was assessed by a cell death detection ELISA kit (Roche Applied Science, Mannheim, Germany). SK-Hep-1 cells were treated with compounds 4 and 19 at 22 at 2.5 and 5 μM for 24 h. The cells were collected and assayed according to the standard protocol provided by the manufacturer.

[8] = tested on: SK-Hep-1 cell lines (a hepatocellular carcinoma (HCC) cell); test: MTT assay, growth inhibition of SK-Hep-1 cells; format: cell-based; conditions: 2.5 and 5 μM, 24 h (FIG. 3B)
[9] = tumor-bearing mice, p.o. daily for 3 weeks; erlotinib 50 mg/kg/day, compounds 8 and 19 20 mg/kg/day

T1 sequence (P00533 with tags, fused parts or gaps DEL746-750): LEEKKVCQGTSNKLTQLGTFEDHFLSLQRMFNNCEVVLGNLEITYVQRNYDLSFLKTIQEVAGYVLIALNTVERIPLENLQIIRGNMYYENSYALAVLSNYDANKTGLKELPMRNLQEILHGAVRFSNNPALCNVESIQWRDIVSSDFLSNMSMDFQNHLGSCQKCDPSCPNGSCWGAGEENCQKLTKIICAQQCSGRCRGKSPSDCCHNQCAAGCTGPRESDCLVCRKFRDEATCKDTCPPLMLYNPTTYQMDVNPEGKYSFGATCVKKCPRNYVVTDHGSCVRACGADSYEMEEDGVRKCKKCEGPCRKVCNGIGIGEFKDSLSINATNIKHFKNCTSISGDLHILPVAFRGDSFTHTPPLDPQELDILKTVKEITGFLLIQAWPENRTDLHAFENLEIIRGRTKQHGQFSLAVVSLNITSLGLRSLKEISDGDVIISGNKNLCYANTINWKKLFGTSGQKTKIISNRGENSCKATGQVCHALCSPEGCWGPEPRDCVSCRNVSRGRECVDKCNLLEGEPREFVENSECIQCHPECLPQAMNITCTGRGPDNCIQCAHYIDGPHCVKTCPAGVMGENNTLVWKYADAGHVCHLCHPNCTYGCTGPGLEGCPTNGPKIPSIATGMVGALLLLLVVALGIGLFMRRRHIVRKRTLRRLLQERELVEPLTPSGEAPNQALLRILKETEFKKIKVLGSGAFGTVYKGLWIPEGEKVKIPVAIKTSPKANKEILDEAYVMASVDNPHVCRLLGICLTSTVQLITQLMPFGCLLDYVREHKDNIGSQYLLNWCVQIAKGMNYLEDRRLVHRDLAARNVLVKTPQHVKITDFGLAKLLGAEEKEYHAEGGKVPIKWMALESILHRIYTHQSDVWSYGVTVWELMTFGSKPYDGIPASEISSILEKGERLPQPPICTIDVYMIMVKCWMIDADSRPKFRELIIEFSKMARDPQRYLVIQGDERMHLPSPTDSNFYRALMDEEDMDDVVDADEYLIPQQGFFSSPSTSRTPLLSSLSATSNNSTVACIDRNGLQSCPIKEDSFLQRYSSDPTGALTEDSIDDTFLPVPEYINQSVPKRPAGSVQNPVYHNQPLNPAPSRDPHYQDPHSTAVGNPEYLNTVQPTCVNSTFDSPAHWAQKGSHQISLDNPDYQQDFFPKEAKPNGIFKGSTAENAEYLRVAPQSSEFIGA

Row | EGFR kinase inhibition (p-EGFR western blot) (EGFR [1]; PC9 cells, 0.5, 1, 2, 4, and 8 μM, 24 hours (FIG. 1A-1B)) | IC50 ([2]; Homo sapiens, SK-HEP1, 48 h) [µM] | EGFR phosphorylation inhibition (western blot) (EGFR [3]) | EGFR phosphorylation inhibition (western blot) (EGFR [1]) | IC50 [2] [µM] | IC50 (Hep3B cell lines) [µM] | SMILES | effect on PLC5 tumor growth, in words (PLC5 xenograft tumor) | tumor inhibition, PLC5 cell (PLC5 xenograft tumor) [%] | effect on Huh-7 tumor growth, in words (Huh-7 xenograft tumor) | tumor inhibition, Huh7 cell (Huh-7 xenograft tumor) [%] | inhibiting CIP2A expression (CIP2A [4]) | CIP2A expression (CIP2A [4]; 2.5 and 5 μM, 24 h (FIG. 3B)) | CIP2A expression (CIP2A [5]) | PARP cleavage (PARP [6]) | p-Akt level (p-Akt) | PARP cleavage (PARP [7]) | cell apoptosis (sub-G1 flow cytometry, DNA fragmentation ELISA) (SK-Hep-1 cells) | cell viability (MTT) [8] | tolerability (signs of toxicity, body weight, necropsy) [9]
1 | devoid of EGFR kinase inhibition | < 10 | devoid of EGFR kinase inhibition |  |  |  | C#Cc1cccc(Nc2nc(Cl)nc3cc(OC)c(OC)cc23)c1 [Compound 8, 2-Chloro-N-(3-ethynylphenyl)-6,7-dimethoxyquinazoline-4-amine] | significantly reduced the growth of tumor | 45.7 | better inhibitory effect on Huh-7 tumors than erlotinib | 40.3 |  |  |  |  |  |  |  |  | 
2 |  |  |  | no inhibitory effect on EGFR kinase | 2.8 | 1.28 | C#Cc1cccc(Nc2nc(Nc3ccc(Oc4ccccc4)cc3)nc3cc(OC)c(OC)cc23)c1 [Compound 19, N^4-(3-Ethynylphenyl)-6,7-dimethoxy-N^2-(4-phenoxyphenyl)quinazoline-2,4-diamine] | significantly reduced the growth of tumor; also recorded: better inhibitory effect on PLC5 tumors than erlotinib; also recorded: significantly reducing the growth of tumor | 60.6 | better inhibitory effect on Huh-7 tumors than erlotinib | 34.8 | inhibiting CIP2A expression; also recorded: most potent inhibition of CIP2A expression | reduce the CIP2A expression | down-regulate the expression of CIP2A | induce the cleavage of PARP | reducing p-Akt level; also recorded: reduced Akt phosphorylation | inducing PARP cleavage | induced cell apoptosis | reduce the CIP2A expression and the cell viability in a dosage dependent manner | 
3 |  |  |  | no inhibitory effect on EGFR kinase | 2.8 |  | C#Cc1cccc(Nc2nc(NCc3ccccc3)nc3cc(OC)c(OC)cc23)c1 [Compound 22, N^2-Benzyl-N^4-(3-ethynylphenyl)-6,7-dimethoxy quinazoline-2,4-diamine] | significantly reducing the growth of tumor |  |  |  | inhibiting CIP2A expression; also recorded: most potent inhibition of CIP2A expression |  |  |  | reducing p-Akt level; also recorded: reduced Akt phosphorylation | inducing PARP cleavage | induced cell apoptosis |  | 
4 |  |  |  |  |  |  | C#Cc1cccc(Nc2ncnc3cc(OCCOC)c(OCCOC)cc23)c1 [erlotinib, reference compound] |  | 50.0 | no effect on tumor growth | 8.8 |  |  |  |  |  |  |  |  | tolerated the treatments well without observable signs of toxicity

Reference: patent US9394261B2, “Aryl amine substituted pyrimidine and quinazoline and their use as anticancer drugs” (National Yang-Ming University, priority 2012, dated 2016)
